Experimental data: patent US20220211699A1 (priority 2019, published 2022)

Columns and labels:
[1] = system: patients with diabetic neuropathy; assay: Clinical study, Brief Pain Inventory-Short Form (BPI-SF) pain self-assessment; assay type: in vivo; conditions: Group 3
Protocol: (§1) The clinical study was carried out on a population of 142 patients with diabetic neuropathy of both sexes and aged between 18 and 75 years. Patients were divided into three groups and submitted to a randomized, double blind, placebo-controlled, parallel-group clinical trial, with double-dummy modality for patients in group 2.
(§2) Group 1 was treated with 20 mg trazodone (10 drops of 6% trazodone hydrochloride solution) three times a day for 8 weeks, for a total of 60 mg a day.
(§3) Group 2 was treated with 10 mg trazodone (5 drops of 6% trazodone hydrochloride solution) three times a day for 8 weeks, for a total of 30 mg a day.
(§4) Group 3 was treated with placebo, 10 drops of an oral solution three times a day for 8 weeks.
(§5) During the ninth week, concluding the clinical trial, group 1 was treated with 10 mg trazodone three times daily for a total of 30 mg per day, while both group 2 and group 3 were treated with placebo.
The 6% trazodone hydrochloride solution contained trazodone hydrochloride (6%), macrogol (35%), propylene glycol (30%), citric acid (0.5%), sucrose (0.15%), sodium hydroxide (0.125%), propyl gallate (0.10%), disodium edetate (0.05%), and purified water as needed at 100 mL. The placebo solution is identical to trazodone solution, but without active ingredient.
Gabapentin was administered in an incremental dosage for all patients treated according to the dosage regimen shown in Table 1 below using capsules containing 100 mg, 300 mg and 400 mg of commercially available gabapentin (Neurontin®, Pfizer). The capsules contain lactose monohydrate, corn starch and talc as excipients, and E171 and […] color combinations.
At the beginning of treatment and at the end of each treatment week, the patients under treatment completed the Brief Pain Inventory-Short Form (BPI-SF), which includes a set of questions relating to pain self-assessment (Zelman D C, et al., “Validation of a modified version of the pain inventory brief for painful diabetic peripheral neuropathy”, J. Pain Symptom Manage. 2005 April; 29(4):401-10).
In particular, patients assessed the average pain intensity in the week prior to the assessment (issue 5) and at the time of the assessment (issue 6) on a scale from 0 to 10 where 0 represents “no pain” and 10 represents “more pain than you can imagine”.
At each visit the evaluations were collected and processed in order to determine the deviation from the average value obtained for each group at the beginning of the treatment. The results were collected in the following Tables 3 and 4, from which the graphs shown in FIGS. 1 and 2 were obtained, respectively.

[2] = system: patients with diabetic neuropathy; assay: Clinical study, SF-36 Mental Component Summary (MCS): positive risk of depression or anxiety; assay type: in vivo; conditions: Group 3
Protocol: as §1, §2, §3, §4, §5
Gabapentin was administered in an incremental dosage for all patients treated according to the dosage regimen shown in Table 1 below using capsules containing 100 mg, 300 mg and 400 mg of commercially available gabapentin (Neurontin®, Pfizer). […]
The results are expressed as a percentage of patients with a positive risk of depression or anxiety compared to the normal general population in which a normal value of […] is estimated.

[3] = system: adult diabetic patients with painful distal symmetrical polyneuropathy; conditions: oral 50 or 100 mg/day; after 2 weeks of therapy; cited from earlier work
[4] = system: diabetic patients suffering from peripheral diabetic neuropathy; conditions: 100 mg/day in a divided dose; 6 diabetic patients; cited from earlier work
[5] = Visit 1, placebo drops + gabapentin 300 mg/day
[6] = Visit 2, placebo drops + gabapentin 600 mg/day
[7] = Visit 3, placebo drops + gabapentin 900 mg/day
[8] = Visit 4, placebo drops + gabapentin 1200 mg/day
[9] = Visit 5, placebo drops + gabapentin 1800 mg/day
[10] = Visit 6, placebo drops + gabapentin 2400 mg/day
[11] = Visit 7, placebo drops + gabapentin 2400 mg/day
[12] = Visit 8, placebo drops + gabapentin 2400 mg/day
[13] = Visit 9, placebo drops + gabapentin
[14] = placebo drops + incremental gabapentin

NCC1(CC(=O)O)CCCCC1 [gabapentin, 2-[1-(aminomethyl)cyclohexyl] acetic acid]
Average pain assessment deviation from beginning of treatment (Visit 0), Question 5 [1, 5]: −1.0
Average pain assessment deviation from beginning of treatment (Visit 0), Question 6 [1, 5]: −0.9
Average pain assessment deviation from beginning of treatment (Visit 0), Question 5 [1, 6]: −1.7
Average pain assessment deviation from beginning of treatment (Visit 0), Question 6 [1, 6]: −1.4
Average pain assessment deviation from beginning of treatment (Visit 0), Question 5 [1, 7]: −2.1
Average pain assessment deviation from beginning of treatment (Visit 0), Question 6 [1, 7]: −1.7
Average pain assessment deviation from beginning of treatment (Visit 0), Question 5 [1, 8]: −1.9
Average pain assessment deviation from beginning of treatment (Visit 0), Question 6 [1, 8]: −1.6
Average pain assessment deviation from beginning of treatment (Visit 0), Question 5 [1, 9]: −2.1
Average pain assessment deviation from beginning of treatment (Visit 0), Question 6 [1, 9]: −1.8
Average pain assessment deviation from beginning of treatment (Visit 0), Question 5 [1, 10]: −2.4
Average pain assessment deviation from beginning of treatment (Visit 0), Question 6 [1, 10]: −2.0
Average pain assessment deviation from beginning of treatment (Visit 0), Question 5 [1, 11]: −2.4
Average pain assessment deviation from beginning of treatment (Visit 0), Question 6 [1, 11]: −1.9
Average pain assessment deviation from beginning of treatment (Visit 0), Question 5 [1, 12]: −2.5
Average pain assessment deviation from beginning of treatment (Visit 0), Question 6 [1, 12]: −2.0
Average pain assessment deviation from beginning of treatment (Visit 0), Question 5 [1, 13]: −2.5
Average pain assessment deviation from beginning of treatment (Visit 0), Question 6 [1, 13]: −2.0
Patients with 50% reduction (percentage of patients with a reduction of at least 50% compared to the initial value), question 5 [1, 14]: 45.8%
Sum deviations (sum of all the deviations obtained at each visit), question 5 [1, 14]: −117.6
percentage of patients with a positive risk of depression or anxiety ([2]; Visit 0 (beginning of treatment, baseline)): 38%
percentage of patients with a positive risk of depression or anxiety ([2]; Visit 8 (end of treatment), placebo drops + incremental gabapentin): 29%

O=c1n(CCCN2CCN(c3cccc(Cl)c3)CC2)nc2ccccn12 [trazodone, 2-(3-[4-(3-chlorophenyl)piperazin-1-yl]propyl)-[1,2,4]triazole[4,3-a]pyridin-3(2H)-one]
patients with complete relief [3]: 22.6%
patients with symptomatic relief [3]: 61.3%
effect in pain relief and numbness [4]: good effect
